The values below come from patent US20060122152A1, “Heparin for the treatment of ocular pathologies” (priority 2004, published 2006).

The subject of assay [1] is corneal neovascularization. Briefly: Silver nitrate cauterization, single agents, percent area of neovascularization and scar (Example 4). Particulars: for NV area compared to the control group, statistical significance (in words): GLM with Tukey's studentized range test, p≦0.05; for Percent Area Of Neovascularization Mean +/− SD: day 7, topical two times daily for 7 days, LMWH 10 mg/ml, ascomycin 50 μg/ml, flurbiprofen 0.03%, doxycycline 20 mg/ml, triamcinolone acetonide 4 mg/ml, normal saline 74.9 +/− 9.2; for mean of percent area (neovascularization): day 7, same treatments, control group 74.9%±9.2%, FIG. 6; for neovascularization on slit lamp photograph (in words): seven days after induction of corneal burn, FIGS. 8A-8C. The class given is in vivo, Long Evans pigmented rats.

The subject of assay [2] is corneal neovascularization. Put plainly: Silver nitrate corneal burn in rat eyes: graded inhibition of neovascularization (Example 1). It is filed as in vivo. Particulars: single agents topically applied twice a day; doxycycline about 1 to about 20 mg/ml, LMWH about 10 mg/ml, triamcinolone about 4 mg/ml; compared to controls. As to the method:
Artificial corneal burns were induced in rat eyes to determine the effects of doxycycline, steroids, and low molecular weight heparin, alone and in combinations, on corneal neovascularization.
The presence of new vessels (neovascularization) and the extent of new vessel formation was assessed by split lamp photography and histology. Inhibition of vessel proliferation was evaluated by measuring vessel progression from the outer cornea (corneal limbus) into the cornea. A numerical rating system was used to quantitate the degree of inhibition (+, ++, and +++ inhibition), with “+ inhibition” indicating inhibition one-third of the distance from the limbus of the cornea to the center; “++ inhibition” indicating inhibition two-thirds of the distance from the limbus to the center; “+++ inhibition” indicating complete inhibition of vessels between the limbus and the center; and the designation “± inhibition” indicating an intermediate degree of inhibition (e.g, less than +, ++, or +++).

Assay [3] concerns corneal neovascularization. Put plainly: Silver nitrate cauterization, two drug combinations, percentage area of corneal neovascularization (Example 3). It is filed as in vivo, Long Evans rats. Conditions: for effect on corneal neovascularization as individual agents (in words): flurbiprofen 0.03% w/v, LMWH 10 mg/ml, data not shown. The source says:
Artificial corneal burns were induced in thirty-two eyes belonging to thirty-two Long Evans rats to determine the effects of doxycycline or another tetracycline derivative and low molecular weight heparin, doxycycline or another tetracycline derivative, and flurbiprofen, or flurbiprofen and low molecular weight heparin, on corneal neovascularization. All the eyes were examined to exclude any eyes with corneal scars and/or neovascularization prior to induction.
Neovascularization was induced in all eyes using silver nitrate cauterization. The animals were first anesthetized by intraperitoneal injection of a mixture of ketamine hydrochloride (25 mg/kg) with xylazine hydrochloride (5 mg/kg). The cornea was then anesthetized by a drop of 0.5% proparacaine and allowed to dry.
Group 1 (number of animals, n=8) received a 1:1 combination of 0.03% flurbiprofen sodium ophthalmic solution (Allergan, Irvine Calif.) and 10 mg/ml low molecular weight heparin (Enoxaparin, Aventis Pharmaceuticals Inc., Bridgewater N.J.); an actual concentration of 0.015% flurbiprofen with 5 mg/ml low molecular weight heparin. […] Group 3 (n=8) received a 1:1 combination of 20 mg/ml doxycycline and 10 mg/ml low molecular weight heparin; an actual concentration of 10 mg/ml doxycycline with 5 mg/ml low molecular weight heparin. Group 4 (n=8) received balanced salt solution (control). The drops were applied topically immediately after cauterization; treatments were administered two times per day for seven days.
The presence of new vessels (neovascularization) and the extent of new vessel formation was assessed by slit lamp photography and histology. Inhibition of vessel proliferation was evaluated by measuring vessel progression from the outer cornea (corneal limbus) into the cornea. As previously described, it will be appreciated that any reduction of new vessel proliferation and/or regression of existing vessels is therapeutic, and that complete inhibition and/or regression is not required, and also that reduction includes regression of existing vessels.
The extent of corneal neovascularization was determined by slit lamp microscopy with photography (SL-7E, Topcon, Tokyo Japan) on day seven after cauterization. The animals were euthanized in a carbon dioxide chamber under deep general anesthesia. […]
Corneal neovascularization was assessed by scanning (Cano scan 9900F, Canon, Tokyo Japan) the slit lamp photographs into high resolution digital images. […] The percentage area of the cornea covered by the corneal scar in each eye was also determined. […]
Statistical analysis was performed using Statistical Analysis System (SPSS 11.5) software. The difference between the groups was determined using Mann-Whitney U Analysis test; a p value less than 0.05 was considered significant.

Turning to `CC1(C)O[C@@H]2C[C@H]3[C@@H]4CCC5=CC(=O)C=C[C@]5(C)[C@@]4(F)[C@@H](O)C[C@]3(C)[C@]2(C(=O)CO)O1` [triamcinolone, 9α-fluoro-11 13,16a,17,21 tetra hydroxy-pregna-1,4diene-3,20-dione cyclic 16,17-acetal with acetone], in assay [1], the “NV area compared to the control group, statistical significance (in words)” value is “significant reduction”; the “Percent Area Of Neovascularization Mean +/− SD” value is given as 13.3 +/− 7.2%; the “mean of percent area (neovascularization)” value (“mean of percent area” for short) was 13.3%±7.1%; the “neovascularization on slit lamp photograph (in words)” value is recorded as “relatively small neovascular area”. Besides, the “histopathology of corneal stroma (in words)” value in assay [1] (H&E 100X, FIG. 9B) is “avascular stroma”. Moreover, in assay [2], the inhibition of neovascularization result is on record as “++”.

In the case of `CC(C(=O)[O-])c1ccc(-c2ccccc2)c(F)c1.O.O.[Na+]` (racemic) [flurbiprofen, sodium (±)-2-(2-fluoro-4-biphenylyl)-propionate dihydrate], in assay [1], the “NV area compared to the control group, statistical significance (in words)” value is “no statistically significant differences”; the “Percent Area Of Neovascularization Mean +/− SD” value was 50.6 +/− 18.7%; the “mean of percent area” value is 50.5%±18.7%; the “neovascularization on slit lamp photograph (in words)” value was “neovascularization is quite prominent”. Besides, the “effect on corneal neovascularization as individual agents (in words)” value in assay [3] is given as “did not significantly decrease”.

For the compound `CC1c2cccc(O)c2C(=O)C2=C(O)C3(O)C(=O)C(C(N)=O)=C(O)C(N(C)C)C3C(O)C21.O` (stereo not shown) [doxycycline, 4-(dimethylamino)-1,4,4a,5,5a,6,11,12a-octahydro3,5,10,12,12a-pentahydroxy-6-methyl-1,11-dioxo-2-naphthacenecarboxamide monohydrate], in assay [1], the “NV area compared to the control group, statistical significance (in words)” value is “significant reduction”; the “Percent Area Of Neovascularization Mean +/− SD” value is listed as 35.5 +/− 29.1%; the “mean of percent area” value is 35.5%±29.1%; the “neovascularization on slit lamp photograph (in words)” value was “neovascularization is less prominent than in control group”. Also, the “effect on corneal neovascularization as individual agent (in words)” value in assay [3] (doxycycline at 10 mg/ml) is on record as “not”. Further, the “effect on corneal neovascularization as individual agent (in words)” value in assay [3] (doxycycline at 20 mg/ml, p<0.05%) is on record as “did significantly inhibit”. In addition, in assay [2], the inhibition of neovascularization entry is “+”.

Turning to low molecular weight heparin, in assay [1], the “NV area compared to the control group, statistical significance (in words)” value was “no statistically significant differences”; the “Percent Area Of Neovascularization Mean +/− SD” value is recorded as 66.7 +/− 9.9%; the “mean of percent area” value is reported as 66.7%±9.9%. The “effect on corneal neovascularization as individual agents (in words)” value in assay [3] is recorded as “did not significantly decrease”. Moreover, the inhibition of neovascularization entry in assay [2] was “+”.

For the compound `CC[C@@H]1/C=C(\C)C[C@H](C)C[C@H](OC)[C@H]2O[C@@](O)(C(=O)C(=O)N3CCCC[C@H]3C(=O)O[C@H](/C(C)=C/[C@@H]3CC[C@@H](O)[C@H](OC)C3)[C@H](C)[C@@H](O)CC1=O)[C@H](C)C[C@@H]2OC` [ascomycin], in assay [1], the “NV area compared to the control group, statistical significance (in words)” value was “no statistically significant differences” and the “mean of percent area” value is on record as 56.0%±22.4%.
